Measured values reported in US10710996B2, “Pyrido-azaheterecydic compound and preparation method and use thereof” (SHANGHAI INSTITUTE OF MATERIA MEDICA, CHINESE ACADEMY OF …, priority 2015, dated 2020).

Biological target: T1, c-Met kinase (Homo sapiens, UniProt P08581)
T1 construct: c-Met kinase domain recombinant protein diluted with 49 μL of the reaction buffer was added
Experiment: Inhibitory effect on c-Met kinase activity at molecular level (ELISA);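 also: recombinant c-Met kinase domain with 5 µM ATP, 1 h at 37 °C, substrate phosphorylation detected by anti-phosphotyrosine PY99 ELISA at 490 nm versus DMSO negative control, ATP-free wells as blank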
Assay type: biochemical

T1 sequence (P08581 1078-1345 limits assumed): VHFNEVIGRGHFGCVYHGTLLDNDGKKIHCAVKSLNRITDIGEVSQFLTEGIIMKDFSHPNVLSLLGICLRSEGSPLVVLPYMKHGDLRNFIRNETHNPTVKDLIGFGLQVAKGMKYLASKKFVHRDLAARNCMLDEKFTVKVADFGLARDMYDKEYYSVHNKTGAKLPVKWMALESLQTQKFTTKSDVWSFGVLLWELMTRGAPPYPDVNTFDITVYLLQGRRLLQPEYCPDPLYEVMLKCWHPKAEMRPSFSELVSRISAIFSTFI

| SMILES | IC50 [nM] |
| --- | --- |
| Nc1ccc(Oc2ccnc3c(Br)c(OCCN4CCOCC4)ncc23)c(F)c1 [Compound 4S, 4-((8-bromo-7-(2-morpholinoethoxy)-1,6-naphthyridin-4-yl)oxy)-3-fluoroaniline] | 1000 to 10000 |
| Nc1ccc(Oc2ccnc3cc(OCCN4CCOCC4)ncc23)c(F)c1 [Compound 5S] | 100 to 1000 |
| CN(C(=O)C1(C(=O)Nc2ccc(Oc3ccnc4cc(OCCN5CCOCC5)ncc34)c(F)c2)CC1)c1ccc(F)cc1 [Compound 14S, N-(3-fluoro-4-((7-(2-morpholinoethoxy)-1,6-naphthyridin-4-yl)oxy)phenyl)-N-(4-fluorophenyl)-N-methylcyclopropyl-1,1-dicarboxamide] | 100 to 1000 |
| O=C(Cc1ccccc1)Nc1ccc(Oc2ccnc3c(Br)c(OCCN4CCOCC4)ncc23)c(F)c1 [Compound 18S, N-(4-((8-bromo-7-(2-morpholinoethoxy)-1,6-naphthyridin-4-yl)oxy)-3-fluorophenyl)-2-phenylacetamide] | 100 to 1000 |
| O=C(Nc1ccc(F)cc1)C1(C(=O)Nc2ccc(Oc3ccnc4cc(N5CCC(N6CCOCC6)CC5)ncc34)c(F)c2)CC1 [Compound 28S, N-(3-fluoro-4-((7-(4-morpholinopiperidin-1-yl)--naphthyridin-4-yl)oxy)phenyl)-N-(4-fluorophenyl)cyclopropyl-1,1-dicarboxamide] | 10 to 100 |

Results, then the compound that gave them:

| IC50 [nM] | SMILES |
| --- | --- |
| 10 to 100 | O=C(Nc1ccc(F)cc1)C1(C(=O)Nc2ccc(Oc3ccnc4c(Br)c(OCCN5CCOCC5)ncc34)c(F)c2)CC1 [Compound 6S, N-(4-((8-bromo-7-(2-morpholinoethoxy)-1,6-naphthyridin-4-yl)oxy)-3-fluorophenyl)-N-(4-fluorophenyl) cyclopropyl-1,1-dicarboxamide] |
| 10 to 100 | CN1CCN(CCOc2ncc3c(Oc4ccc(NC(=O)C5(C(=O)Nc6ccc(F)cc6)CC5)cc4F)ccnc3c2Br)CC1 [Compound 10S, N-(4-((8-bromo-7-(2-(4-methylpiperazin-1-yl)ethoxy)-1,6-naphthyridin-4-yl)oxy)-3-fluorophenyl)-N-(4-fluorophenyl) cyclopropyl-1,1-dicarboxamide] |
| 10 to 100 | O=C(Nc1ccc(F)cc1)c1cccn(-c2ccc(Oc3ccnc4cc(OCCN5CCOCC5)ncc34)c(F)c2)c1=O [Compound 16S, 1-(3-fluoro-4-((7-(2-morpholinoethoxy)-1,6-naphthyridin-4-yl)oxy)phenyl)-N-(4-fluorophenyl)-2-oxo-1,2-dihydropyridine-3-carboxamide] |
| 1 to 10 | COC(=O)c1cccn(-c2ccc(Oc3ccnc4cc(OCCN5CCOCC5)ncc34)c(F)c2)c1=O [Compound 17S, methyl 1-(3-fluoro-4-((7-(2-morpholinoethoxy)-1,6-naphthyridin-4-yl)oxy)phenyl)-2-oxo-1,2-dihydropyridine-3-carboxylate] |
| 10 to 100 | O=C(Nc1ccc(Oc2ccnc3c(Br)c(OCCN4CCOCC4)ncc23)c(F)c1)c1c[nH]cc(-c2ccccc2)c1=O [Compound 19S, N-(4-((8-bromo-7-(2-morpholinoethoxy)-1,6-naphthyridin-4-yl)oxy)-3-fluorophenyl)-4-oxo-5-phenyl-1,4-dihydropyridine-3-carboxamide] |
| 10 to 100 | O=C(Nc1ccc(Oc2ccnc3c(Br)c(OCCN4CCOCC4)ncc23)c(F)c1)c1c[nH]cc(-c2ccc(F)cc2)c1=O [Compound 21S, N-(4-((8-bromo-7-(2-morpholinoethoxy)-1,6-naphthyridin-4-yl)oxy)-3-fluorophenyl)-5-(4-fluorophenyl)-4-oxo-1,4-dihydropyridine-3-carboxamide] |
| 10 to 100 | O=C(Nc1ccc(F)cc1)C1(C(=O)Nc2ccc(Oc3ccnc4cc(N5CCOCC5)ncc34)c(F)c2)CC1 [Compound 27S, N-(3-fluoro-4-((7-morpholino-1,6-naphthyridin-4-yl)oxy)phenyl)-N-(4-fluorophenyl)cyclopropyl-1,1-dicarboxamide] |
